Test results reported in paper PMC10504751, “Chalcone/1,3,4-Oxadiazole/Benzimidazole hybrids as novel anti-proliferative agents inducing apoptosis and inhibiting EGFR & BRAFV^600E” (BMC Chemistry, 2023).

Key:
Test in all cases: NCI one-dose SRB anti-proliferative screen
[1] = test system: UACC-257; type: cell-based; settings: Homo sapiens; UACC-257 (Melanoma), NCI one dose 10 µM; read-out: Cell growth inhibition %
Summary of the method: (§1)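 Each hybrid is applied once, at 10 µM, and anti-proliferative effect is quantified by SRB colorimetry.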

[2] = test system: CCRF-CEM; type: cell-based; settings: Homo sapiens; CCRF-CEM (Leukemia), NCI one dose 10 µM; read-out: Cell growth inhibition %
Summary of the method: as §1

[3] = test system: RPMI-8226; type: cell-based; settings: Homo sapiens; RPMI-8226 (Leukemia), NCI one dose 10 µM; read-out: Cell growth inhibition %
Summary of the method: as §1

[4] = test system: MDA-MB-435; type: cell-based; settings: Homo sapiens; MDA-MB-435 (Melanoma), NCI one dose 10 µM; read-out: Cell growth inhibition %
Summary of the method: as §1

[5] = test system: NCI-H522; type: cell-based; settings: Homo sapiens; NCI-H522 (Non-Small Cell Lung Cancer), NCI one dose 10 µM; read-out: Cell growth inhibition %
Summary of the method: as §1

[6] = test system: PC-3; type: cell-based; settings: Homo sapiens; PC-3 (Prostate Cancer), NCI one dose 10 µM; read-out: Cell growth inhibition %
Summary of the method: as §1

[7] = test system: SK-MEL-28; type: cell-based; settings: Homo sapiens; SK-MEL-28 (Melanoma), NCI one dose 10 µM; read-out: Cell growth inhibition %
Summary of the method: as §1

[8] = test system: UO-31; type: cell-based; settings: Homo sapiens; UO-31 (Renal Cancer), NCI one dose 10 µM; read-out: Cell growth inhibition %
Summary of the method: as §1

[9] = test system: HOP-62; type: cell-based; settings: Homo sapiens; HOP-62 (Non-Small Cell Lung Cancer), NCI one dose 10 µM; read-out: Cell growth inhibition %
Summary of the method: as §1

[10] = test system: SN12C; type: cell-based; settings: Homo sapiens, SN 12C (Renal Cancer), NCI one dose 10 µM, read-out: Cell growth inhibition %
Summary of the method: as §1

[11] = test system: HS 578T; type: cell-based; settings: Homo sapiens; HS 578T (Breast Cancer), NCI one dose 10 µM; read-out: Cell growth inhibition %
Summary of the method: as §1

[12] = test system: IGROV1; type: cell-based; settings: Homo sapiens, IGROV-1; IGROV1 (Ovarian Cancer), NCI one dose 10 µM; read-out: Cell growth inhibition %
Summary of the method: as §1

[13] = test system: SK-OV-3; type: cell-based; settings: Homo sapiens; SK-OV-3 (Ovarian Cancer), NCI one dose 10 µM; read-out: Cell growth inhibition %
Summary of the method: as §1

[14] = test system: MALME-3M; type: cell-based; settings: Homo sapiens; MALME-3M (Melanoma), NCI one dose 10 µM; read-out: Cell growth inhibition %
Summary of the method: as §1

[15] = test system: UACC-62; type: cell-based; settings: Homo sapiens; UACC-62 (Melanoma), NCI one dose 10 µM; read-out: Cell growth inhibition %
Summary of the method: as §1

[16] = test system: OVCAR-8; type: cell-based; settings: Homo sapiens; OVCAR-8 (Ovarian Cancer), NCI one dose 10 µM; read-out: Cell growth inhibition %
Summary of the method: as §1

[17] = test system: M14; type: cell-based; settings: Homo sapiens; M14 (Melanoma), NCI one dose 10 µM; read-out: Cell growth inhibition %
Summary of the method: as §1

[18] = test system: OVCAR-5; type: cell-based; settings: Homo sapiens; OVCAR-5 (Ovarian Cancer), NCI one dose 10 µM; read-out: Cell growth inhibition %
Summary of the method: as §1

[19] = test system: COLO 205; type: cell-based; settings: Homo sapiens; COLO 205 (Colon Cancer), NCI one dose 10 µM; read-out: Cell growth inhibition %
Summary of the method: as §1

[20] = test system: MCF7; type: cell-based; settings: Homo sapiens; MCF7 (Breast Cancer), NCI one dose 10 µM; read-out: Cell growth inhibition %
Summary of the method: as §1

[21] = test system: A549/ATCC; type: cell-based; settings: Homo sapiens; A549/ATCC (Non-Small Cell Lung Cancer), NCI one dose 10 µM; read-out: Cell growth inhibition %
Summary of the method: as §1

[22] = test system: EKVX; type: cell-based; settings: Homo sapiens; EKVX (Non-Small Cell Lung Cancer), NCI one dose 10 µM; read-out: Cell growth inhibition %
Summary of the method: as §1

[23] = test system: SNB-75; type: cell-based; settings: Homo sapiens; SNB-75 (CNS Cancer), NCI one dose 10 µM; read-out: Cell growth inhibition %
Summary of the method: as §1

[24] = test system: HCT-15; type: cell-based; settings: Homo sapiens; HCT-15 (Colon Cancer), NCI one dose 10 µM; read-out: Cell growth inhibition %
Summary of the method: as §1

[25] = test system: BT-549; type: cell-based; settings: Homo sapiens; BT-549 (Breast Cancer), NCI one dose 10 µM; read-out: Cell growth inhibition %
Summary of the method: as §1

[26] = test system: SK-MEL-2; type: cell-based; settings: Homo sapiens; SK-MEL-2 (Melanoma), NCI one dose 10 µM; read-out: Cell growth inhibition %
Summary of the method: as §1

[27] = test system: HCT-116; type: cell-based, human; settings: Homo sapiens; HCT-116 (Colon Cancer), NCI one dose 10 µM; read-out: Cell growth inhibition %
Summary of the method: as §1

[28] = test system: MOLT-4; type: cell-based, human; settings: Homo sapiens; MOLT-4 (Leukemia), NCI one dose 10 µM; read-out: Cell growth inhibition %
Summary of the method: as §1

[29] = test system: T-47D; type: cell-based, human; settings: Homo sapiens, T47D; T-47D (Breast Cancer), NCI one dose 10 µM; read-out: Cell growth inhibition %
Summary of the method: as §1

[30] = test system: RXF 393; type: cell-based, human; settings: Homo sapiens; RXF 393 (Renal Cancer), NCI one dose 10 µM; read-out: Cell growth inhibition %
Summary of the method: as §1

[31] = test system: K-562; type: cell-based, human; settings: Homo sapiens, K562; K-562 (Leukemia), NCI one dose 10 µM; read-out: Cell growth inhibition %
Summary of the method: as §1

| SMILES | inhibition at 10 µM [1] [%] | inhibition at 10 µM [2] [%] | inhibition at 10 µM [3] [%] | inhibition at 10 µM [4] [%] | inhibition at 10 µM [5] [%] | inhibition at 10 µM [6] [%] | inhibition at 10 µM [7] [%] | inhibition at 10 µM [8] [%] | inhibition at 10 µM [9] [%] | inhibition at 10 µM [10] [%] | inhibition at 10 µM [11] [%] | inhibition at 10 µM [12] [%] | inhibition at 10 µM [13] [%] | inhibition at 10 µM [14] [%] | inhibition at 10 µM [15] [%] | inhibition at 10 µM [16] [%] | inhibition at 10 µM [17] [%] | inhibition at 10 µM [18] [%] | inhibition at 10 µM [19] [%] | inhibition at 10 µM [20] [%] | other results |
| --- | --- | --- | --- | --- | --- | --- | --- | --- | --- | --- | --- | --- | --- | --- | --- | --- | --- | --- | --- | --- | --- |
| COc1ccc(/C=C/C(=O)c2ccc(NC(=O)CSc3nnc(-c4ccc5[nH]c(-c6ccc(Cl)cc6)nc5c4)o3)cc2)cc1 [Compound 7h, 2-{5-[2-(4-Chlorophenyl)-1 H-benzo[d]imidazol-5-yl]-1,3,4-oxadiazol-2-ylthio}-N-{4-[(E)-3-(4-methoxyphenyl)acryloyl]phenyl}acetamide] | 0 | 40.1 | 35.6 | 1.94 | 20.9 | 17.5 | 0 | 12.5 | 0 | 6.65 | 5.34 | 4.69 | 0 | 6.52 | 16.2 | 20.5 | 0 | 0 | 0 | 20.3 | inhibition at 10 µM [21]: 0%; inhibition at 10 µM [22]: 0%; inhibition at 10 µM [23]: 1.47%; inhibition at 10 µM [24]: 5.06%; inhibition at 10 µM [25]: 15%; inhibition at 10 µM [26]: 0%; inhibition at 10 µM [27]: 6.56%; inhibition at 10 µM [28]: 35.4%; inhibition at 10 µM [29]: 22%; inhibition at 10 µM [30]: 0%; inhibition at 10 µM [31]: 12.7% |
| COc1cc(-c2nc3cc(-c4nnc(SCC(=O)Nc5ccc(C(=O)/C=C/c6ccccc6)cc5)o4)ccc3[nH]2)cc(OC)c1OC [Compound 7u, 2-{5-[2-(3,4,5-Trimethoxyphenyl)-1 H-benzo[d]imidazol-5-yl]-1,3,4-oxadiazol-2-ylthio}-N-{4-[(E)-3-phenylacryloyl]phenyl}acetamide] | 0 | 21.9 | 24.2 | 6.83 | 3.99 | 9.18 | 0 | 21 | 0 | 13.2 | 9.37 | 29 | 0 | 2.82 | 8.01 | 10.6 | 0 | 0 | 0 | 44.7 | inhibition at 10 µM [21]: 0.78%; inhibition at 10 µM [22]: 0%; inhibition at 10 µM [23]: 13.8%; inhibition at 10 µM [24]: 12.3%; inhibition at 10 µM [25]: 28.9%; inhibition at 10 µM [26]: 0%; inhibition at 10 µM [27]: 26.5%; inhibition at 10 µM [28]: 21.8%; inhibition at 10 µM [29]: 14.8%; inhibition at 10 µM [30]: 0%; inhibition at 10 µM [31]: 14.9% |
| COc1ccc(/C=C/C(=O)c2ccc(NC(=O)CSc3nnc(-c4ccc5[nH]c(-c6ccc(OC)c(OC)c6)nc5c4)o3)cc2)cc1 [Compound 7r, 2-{5-[2-(3,4-Dimethoxyphenyl)-1 H-benzo[d]imidazol-5-yl]-1,3,4-oxadiazol-2-ylthio}-N-{4-[(E)-3-(4-methoxyphenyl)acryloyl]phenyl}acetamide] | 0 | 38.6 | 14.7 | 0 | 14.3 | 7.58 | 0 | 12.4 | 0 | 6.98 | 13.2 | 2.07 | 0 | 8.71 | 11 | 11.1 | 0 | 0 | 0 | 24.7 | inhibition at 10 µM [21]: 0%; inhibition at 10 µM [22]: 3.51%; inhibition at 10 µM [23]: 1.88%; inhibition at 10 µM [24]: 2.32%; inhibition at 10 µM [25]: 5.47%; inhibition at 10 µM [26]: 0%; inhibition at 10 µM [27]: 3.79%; inhibition at 10 µM [28]: 34.5%; inhibition at 10 µM [29]: 28.9%; inhibition at 10 µM [30]: 0%; inhibition at 10 µM [31]: 21.9% |
| COc1cc(-c2nc3cc(-c4nnc(SCC(=O)Nc5ccc(C(=O)/C=C/c6ccc(Cl)cc6)cc5)o4)ccc3[nH]2)cc(OC)c1OC [Compound 7v, 2-{5-[2-(3,4,5-Trimethoxyphenyl)-1 H-benzo[d]imidazol-5-yl]-1,3,4-oxadiazol-2-ylthio}-N-{4-[(E)-3-(4-chlorophenyl)acryloyl]phenyl}acetamide] | 0 | 18.4 | 42.8 | 1.02 | 7.4 | 4.91 | 0 | 16 | 0 | 9.61 | 12.1 | 18.4 | 0 | 0 | 16 | 7.52 | 0 | 0.76 | 0 | 40.9 | inhibition at 10 µM [21]: 0%; inhibition at 10 µM [22]: 0.51%; inhibition at 10 µM [23]: 14.7%; inhibition at 10 µM [24]: 13.1%; inhibition at 10 µM [25]: 15.6%; inhibition at 10 µM [26]: 0%; inhibition at 10 µM [27]: 18.5%; inhibition at 10 µM [28]: 20.6%; inhibition at 10 µM [29]: 19.6%; inhibition at 10 µM [30]: 0%; inhibition at 10 µM [31]: 16.2% |
